# Columns and labels:
# [1] = test system: bleomycin-induced lung fibrosis; assay: Intratracheal bleomycin mouse model of pulmonary fibrosis (21-day model); type: in vivo, C57BL/6N mice; settings: Day 21, oral once daily for 14 days
# Protocol: Oral administration of a solid amorphous dispersion formulation of fenretinide (LAU-7b SDI) was evaluated in treating and/or reducing pulmonary fibrosis in mouse model of lung fibrosis induced via a single intratracheal administration of bleomycin followed by vehicle, fenretinide (LAU-7b SDI) or pirfenidone oral treatment for 21 days. The LAU-7b SDI formulation was obtained by spray drying and contains fenretinide in amorphous form in a solid dispersion comprising a matrix polymer, based on the following formula: 40% fenretinide, 59.6% povidone (KOLLIDON® 30), 0.24% butylated hydroxyanisole (BHA) and 0.16% butylated hydroxytoluene (BHT).
# Male C57BL/6N mice from Charles River Laboratories, 10-12 weeks of age, weighing around 20-25 g, at the time of their enrolment, received 50 μL of bleomycin sulfate (2.0 mg/kg) by a single intratracheal instillation on Day 1 of the study. The Sham group received an equivalent volume of 0.9% saline. On Day 7 post-bleomycin instillation the animals were randomized in groups of 8 animals based on their body weight loss and Penh value. Oral dosing by gavage (10 mL/kg) with the vehicle (sham and BLM Control groups), LAU-7b SDI (fenretinide at 5 mg/kg and 10 mg/kg dose), and the reference compound (pirfenidone 100 mg/kg) were initiated once daily starting from Day 7 to Day 21. Two hours following the last dose on Day 21 all the mice were sacrificed, the lungs of each mouse were harvested, flushed with 0.9% NaCl and inflated with 10% neutral buffered formalin solution. After embedding and mounting of the lung tissue (transversal slices of 5 μm thickness), the histology slides were stained with hematoxylin/eosin for the Ashcroft score evaluation by a treatment-blinded pathologist, and with Sirius red staining for automated fibrosis quantification (Biocellvia, France).
# As in Example 4, the key endpoints evaluated in this study were the Ashcroft score, pulmonary foci and collagen content obtained by histological assessment of the lung tissue at the end of the study. Statistical analysis was made on normally distributed data by one-way ANOVA followed by multiple comparisons (Fisher's LSD post hoc test) to assess the difference between the groups, using Graph Pad Prism Software version 8.0 (San Diego, CA, USA). Differences were considered statistically significant when P values were p<0.05 (*), or p<0.01 (**) or p<0.001 (***). The Ashcroft score was assessed in the lung tissue by treatment-blinded pathologist on the H&E stained histology slides (2 cross sections/animal) and using the modified Ashcroft scale. Briefly, each lung section was scanned at a magnification of ×100 (H&E staining), and graded from 0 (normal lung) to 8 (total fibrotic obliteration of the field). The mean value of the grades obtained for each of the two sections was used as the Ashcroft score.
# Pulmonary foci (fibrotic tissue) and lung collagen content were quantified in the Sirius red stained lung tissue histology sections by high resolution, automated digital image analysis (Biocellvia, France) on Day 21 after lung fibrosis induction by bleomycin (BLM) instillation and following a 14-day oral gavage treatment with LAU-7b SDI (fenretinide, two doses), pirfenidone (reference drug) or vehicle only. Full field analysis of 2 lung sections per animal was conducted and the results were expressed as a mean percentage of total surface. This test is considered highly reliable, offering reproducible and observer-independent assessment of quantitative analysis of fibrosis.
# [2] = test system: bleomycin-induced lung fibrosis; assay: Intratracheal bleomycin mouse model of pulmonary fibrosis (28-day model); type: in vivo, C57BL/6N mice; settings: Day 28; oral once daily Day 7 to Day 28; fenretinide 10 mg/kg (as LAU-7b SDI), pirfenidone 100 mg/kg
# From the text: Oral administration of a solid, amorphous dispersion formulation of fenretinide (LAU-7b SDI) was provided as a treatment for reduction of pulmonary fibrosis, in a mouse model of lung fibrosis induced via a single intratracheal administration of bleomycin, for 21 days. The LAU-7b SDI formulation was obtained by spray drying and contains fenretinide in amorphous form in a solid dispersion comprising a matrix polymer, based on the following formula: 40% fenretinide, 59.6% povidone (KOLLIDON® 30), 0.24% butylated hydroxyanisole (BHA) and 0.16% butylated hydroxytoluene (BHT).
# Male C57BL/6N mice from Charles River Laboratories, 10-12 weeks of age, weighing around 20-25 g, at the time of their enrolment, received 50 μL of bleomycin sulfate (2.0 mg/kg) by a single intratracheal instillation on Day 1 of the study to induce lung fibrosis. The sham group received an equivalent volume of 0.9% saline. On Day 7 postbleomycin instillation, the animals were randomized in groups of animals based on their body weight loss and enhanced pause airway resistance estimate (PenH value), while the sham group had 6 mice. Oral dosing by gavage (10 mL/kg) with the vehicle (sham and BLM control groups), the test articles (fenretinide 10 mg/kg), and the reference compound (pirfenidone 100 mg/kg) were administered once daily starting from Day 7 to Day 28. Two hours following the last dose on Day 28, all mice were sacrificed, the lungs of each mouse harvested, flushed with 0.9% NaCl and inflated with 10% neutral buffered formalin solution. After embedding and mounting of the lung tissue (transversal slices of 5 μm thickness), the histology slides were stained with hematoxylin/eosin for the Ashcroft score evaluation by a treatment-blinded pathologist and with Sirius red staining for automated fibrosis quantification (Biocelvia, France).
# The key endpoints evaluated in this study were Ashcroft score, pulmonary foci and collagen content obtained by histological assessment of the lung tissue at the end of the study. Statistical analysis was made on normally distributed data by one-way ANOVA followed by multiple comparisons (Fisher's LSD post hoc test) to assess the difference between the groups, using Graph Pad Prism Software version 8.0 (San Diego, CA, USA). Differences were considered statistically significant when P values were p<0.05 (*), or p<0.01 (**) or p<0.001 (***).
# Ashcroft scale for the evaluation of bleomycin-induced lung fibrosis is the analysis of stained histological samples by visual assessment. The Ashcroft score was assessed in lung tissue collected on Day 28 by treatment-blinded pathologist on H&E stained lung tissue histology slides (3 cross sections/animal) and using the modified Ashcroft scale. Briefly, each lung section was scanned at a magnification of x100 (H&E staining), read by a blinded examiner, and graded from 0 (normal lung) to 8 (total fibrotic obliteration of the field). Criteria for grading lung fibrosis in Ashcroft scale are as follows: Grade 0=normal lung; Grade 1=minimal fibrous thickening of alveolar or bronchiolar walls; Grade 3=moderate thickening of walls without obvious damage to lung architecture; Grade 5=increased fibrosis with definitive damage to lung structure and formation of fibrous bands or small fibrous masses; Grade 7=severe distortion of structure and large fibrous area; Grade 8=total fibrous obliteration of lung fields. The mean value of the grades obtained for each of the three sections was used as the Ashcroft score. Ashcroft score, using the modified scale, is a reliable and reproducible method of visual quantification of bleomycin induced lung fibrosis in H&E stained histological lung sections based on description of the general morphology of alveolar septa and lung structure. […]
# [3] = fenretinide 5 mg/kg (as LAU-7b SDI)
# [4] = fenretinide 10 mg/kg (as LAU-7b SDI), pirfenidone 100 mg/kg
smiles,measurement,setting,value
"CC1=C(/C=C/C(C)=C/C=C/C(C)=C/C(=O)Nc2ccc(O)cc2)C(C)(C)CCC1 [fenretinide, 4-hydroxyphenyl retinamide]",Ashcroft score vs BLM control,[1]; [3],also reduced
same,"percentage of collagen content, automated Sirius red analysis, vs BLM control",[1]; [3],did not induce statistically significant reduction
same,"percentage of pulmonary foci, automated Sirius red analysis, vs BLM control",[1]; [3],did not induce statistically significant reduction
same,Ashcroft score vs BLM control,[1]; [4],reduced significantly
same,"percentage of collagen content, automated Sirius red analysis, vs BLM control",[1]; [4],reduced significantly (p<0.05)
same,"percentage of pulmonary foci, automated Sirius red analysis, vs BLM control",[1]; [4],reduced significantly (p<0.05)
same,Ashcroft score vs BLM control,[2],reduced significantly (p<0.05)
same,"percentage of collagen content in lung tissue, automated Sirius red analysis, vs BLM control",[2],significantly reduced
same,"percentage of pulmonary foci (fibrotic tissue), automated Sirius red analysis, vs BLM control",[2],significant reduction

# — patent publication US20230310352A1, “NOVEL COMPOSITIONS AND METHODS FOR THE TREATMENT OF LUNG FIBROSIS” (LAURENT PHARMACEUTICALS INC., priority 2020, published 2023)
